Results as given in paper PMC3041267 (Angewandte Chemie (International ed. in English), 2009).

System: HDAC activity in HeLa cell nuclear extracts
Assay type: biochemical
Conditions: read-out: IC50, inhibition of HDAC activity in HeLa cell nuclear extracts; preliminary assessment, fluorescence assay

## CCC(=O)CCCCC[C@@H]1NC(=O)[C@H]2CCCCN2C(=O)[C@H]([C@@H](C)CC)NC(=O)[C@H](Cc2cn(OC)c3ccccc23)NC1=O [apicidin]
  IC50: ≤ 100 nM
